Values of other authors as cited in paper PMC2908260 (Journal of nuclear medicine : official publication, Society …, 2010).

Conditions: other ^18F-labeled octreotide analogues

## N^α-(1-deoxy-D-fructosyl)-N^ε-(2-[^18F]fluoropropionyl)-Lys^0-Tyr^3octreotate [[^18F]FP-Gluc-TOCA]
  log P: −1.70 ± 0.02
